Like-named read-outs stand apart in the source and are kept apart here.
Columns and labels:
[1] = tested on: STAT5b-GyrB fusion proteins
Protocol: To evaluate the effectiveness of the analogs of the present invention to act as chemical dimerizers of chimeric proteins, a BAF cell proliferation assay was performed.
BAF Cell Proliferation Assay
We have transfected BAF Cells with the human IL2 Receptor β chain. These transfected cells respond to human IL-2 by increasing their rate of cellular proliferation. This can be assayed by measuring the amount of tritiated thymidine that these cells incorporate into their DNA. One of the signaling proteins activated by IL-2 is the transcription factor STAT5b. This activation of STAT5b is responsible, in part, for the growth-promoting effects of IL-2.
STAT5b is activated by dimerization, an event that is dependent on its phosphorylation and which requires interaction of STAT5b with a ligand bound activated receptor. We can mimic this activation of STAT5b by transfecting BAF cells with a fusion protein consisting of the GyrB domain (the24 kDa amino-terminal fragment of bacterial DNA gyrase, amino acids 2-220) fused to the carboxy-terminus of STAT5b. Addition of the symmetrically dimeric antibiotic coumermycin artificially forces the dimerization of STAT5b-GyrB fusion proteins and results in an increased rate of cell growth that can be measured by the cell's ability to incorporate thymidine. This provides an assay to determine the ability of coumermycin analogs to promote dimerization of STAT5b-GyrB fusion proteins.
The assay is run as follows: BAF cells transfected with the human IL-2 receptor β chain and STAT5b-GyrB are washed twice in phosphate-buffered saline. They are then re-suspended in BAF cell media that lacks IL-2 and placed in a 96-well plate. Increasing amounts of coumermycin, or coumermycin analogs are then added to different wells in a 96-well plate and the cells are incubated overnight. Twenty-four hours later the cell media is spiked with tritiated thymidine and the cells are incubated for an additional 16 hours. The cells are subsequently harvested with a Wallac cell harvester and the amount of tritiated thymidine incorporated is measured using a β scintillation counter.
Set up for BAF proliferation assay was as follows: Spin down cells and wash one time in PBS. Resuspended in BAF cell media without cytokine at 2×10^5 cells/ml. added 100 μl/well or 2×10^4 cells. The compounds were prepared at 2 mg/ml (equivalent to 1.8 nM±5%). Plates were set up so that each condition equaled 1 row of 12 (n=number of wells/row=12). DMSO being utilized as an initial control Compound 5 was prepared in concentrations of 1.6, 16, 163, 450, and 900 nM, and 1.8 μM in DMSO, and as a second control, IL-2 growth factor was added to coumermycin. Two novenamine anologs, Comparative Compounds (CCmpd) 1 and 2, below were also use in this example as control.
The compounds were re-suspended in dimethylsulfoxide (DMSO) at a concentration of 2 mg/ml. […] Next, the cells were washed 2 times with PBS. The re-suspended cells were present at a concentration of 1×10^5 cells /ml in BAF media (RPMI, 10% FCS (fetal calf serum), 1% NEAA (non-essential amino acid), 1% L-G-lu, P/S and Hepes) without IL-2, added 100 μl to well (equal to 1×10^4 cells/well).
The compounds were prepared in as follows: DMSO was used as a control; each of the 5 compounds were combined with DMSO at concentrations of 1.8 μM, 900 nM, 450 nM, 90 nM 9 nM, and 900 nM. As a second control, coumermycin in IL-2 was utilized. Each solution at the aforementioned concentration condition, along with BAF cells, was placed in 1 row (12 wells) of a 96 well plate. Thereafter, 100 μL of compound (twice the concentration) was added to the wells.

[2] = tested on: STAT5b-GyrB fusion proteins; assay: Inhibition assay in BAF cells, all wells with 90 nM coumermycin; format: cell-based, murine; set-up: unit not given here; conditions: Table 6
Protocol: An inhibition assay was also conducted for Compounds 1 and 2. For this assay, all wells contained a DMSO concentration of 90 nM of coumermycin. Compounds 1 and 2 were added at concentrations of 1.8 μM, 900 nM, 90 nM and 9 nM. The conditions of the assay were identical to those referenced early in this example, except that one-third of the amount of 3-H thymidine was used.

[3] = Table 3, Example 2, 900 pM, 1×10^4 cells/well
[4] = Table 2, Example 1, stimulus 1.6 nM, 2×10^4 cells/well
[5] = Table 2, Example 1, stimulus 16.3 nM
[6] = Table 2, Example 1, stimulus 163 nM
[7] = Table 2, Example 1, stimulus 450 nM
[8] = Table 2, Example 1, stimulus 900 nM
[9] = Table 2, Example 1, stimulus 1.8 μM
[10] = Cou. 90 nM plus inhibitor 90 nM
[11] = Cou. 90 nM plus inhibitor 900 nM
[12] = Cou. 90 nM plus inhibitor 1800 nM

Row | SMILES | Prolif. (cpm) [1, 3] [cpm] | Prolif. (cpm) ([1]; Table 3, Example 2, 9 nM) | Prolif. (cpm) ([1]; Table 3, Example 2, 90 nM) | Prolif. (cpm) ([1]; Table 3, Example 2, 450 nM) | Prolif. (cpm) ([1]; Table 3, Example 2, 900 nM) | Prolif. (cpm) ([1]; Table 3, Example 2, 1.8 μM) | Prolif. (cpm) ([1]; Table 7, Example 5, 900 pM) | Prolif. (cpm) ([1]; Table 7, Example 5, 9 nM) | Prolif. (cpm) ([1]; Table 7, Example 5, 90 nM) | Prolif. (cpm) ([1]; Table 7, Example 5, 450 nM) | Prolif. (cpm) ([1]; Table 7, Example 5, 900 nM) | Prolif. (cpm) ([1]; Table 7, Example 5, 1.8 μM) | Prolif. [1, 4] | Prolif. [1, 5] | Prolif. [1, 6] | Prolif. [1, 7] | Prolif. [1, 8] | Prolif. [1, 9] | also measured
1 | COC1C(OC(=O)c2ccc(C)[nH]2)C(O)C(Oc2ccc3c(O)c(NC(=O)c4ccc(C(=O)Nc5c(O)c6ccc(OC7OC(C)(C)C(OC)C(OC(=O)c8ccc(C)[nH]8)C7O)c(C)c6oc5=O)nc4)c(=O)oc3c2C)OC1(C)C (stereo not drawn) [Cmpd 3] | 16313 | 16767 | 19920 | 22221 | 22824 | 21389 | – | – | – | – | – | – | – | – | – | – | – | – | –
2 | COC1C(OC(=O)c2ccc(C)[nH]2)C(O)C(Oc2ccc3c(O)c(NC(=O)c4cc(C(=O)Nc5c(O)c6ccc(OC7OC(C)(C)C(OC)C(OC(=O)c8ccc(C)[nH]8)C7O)c(C)c6oc5=O)[nH]n4)c(=O)oc3c2C)OC1(C)C (stereo not drawn) [Cmpd 7] | 16520 | 16599 | 17690 | 20553 | 20619 | 20207 | – | – | – | – | – | – | – | – | – | – | – | – | –
3 | COC1C(OC(=O)c2ccc(C)[nH]2)C(O)C(Oc2ccc3c(O)c(NC(=O)c4cncc(C(=O)Nc5c(O)c6ccc(OC7OC(C)(C)C(OC)C(OC(=O)c8ccc(C)[nH]8)C7O)c(C)c6oc5=O)c4)c(=O)oc3c2C)OC1(C)C (stereo not drawn) [Cmpd 4] | 20204 | 19290 | 19731 | 20726 | 22817 | 23135 | – | – | – | – | – | – | – | – | – | – | – | – | –
4 | COC1C(OC(N)=O)C(O)C(Oc2ccc3c(O)c(NC(=O)c4ccc(Oc5ccc(C(=O)Nc6c(O)c7ccc(OC8OC(C)(C)C(OC)C(OC(N)=O)C8O)c(C)c7oc6=O)cc5)cc4)c(=O)oc3c2C)OC1(C)C (stereo not drawn) [CCmpd 4, reference compound] | – | – | – | – | – | – | 35624 | 35985 | 36764 | 36763 | 35379 | 31918 | – | – | – | – | – | – | –
5 | COC1C(OC(=O)c2ccc(C)[nH]2)C(O)C(Oc2ccc3c(O)c(NC(=O)c4c[nH]c(C(=O)Nc5c(O)c6ccc(OC7OC(C)(C)C(OC)C(OC(=O)c8ccc(C)[nH]8)C7O)c(C)c6oc5=O)c4C)c(=O)oc3c2C)OC1(C)C (stereo not drawn) [Cou., coumermycin] | 18071 | 20551 | 25219 | 27515 | 30752 | 30664 | 36503 | 44455 | 51248 | 60293 | 64831 | 68728 | 16137 | 16261 | 16836 | 18842 | 21057 | 23199 | Prolif. ([1]; Table 4, Example 3, 900 pM): 7422; Prolif. ([1]; Table 4, Example 3, 9 nM): 8792; Prolif. ([1]; Table 4, Example 3, 90 nM): 9860; Prolif. ([1]; Table 4, Example 3, 450 nM): 10832; Prolif. ([1]; Table 4, Example 3, 900 nM): 11470; Prolif. ([1]; Table 4, Example 3, 1.8 μM): 12308; Prolif. (cpm) ([1]; Table 5, Example 4, 900 pM): 6063 cpm; Prolif. (cpm) ([1]; Table 5, Example 4, 9 nM): 6750 cpm; Prolif. (cpm) ([1]; Table 5, Example 4, 90 nM): 7595 cpm; Prolif. (cpm) ([1]; Table 5, Example 4, 450 nM): 8457 cpm; Prolif. (cpm) ([1]; Table 5, Example 4, 900 nM): 8636 cpm; Prolif. (cpm) ([1]; Table 5, Example 4, 1.8 μM): 8610 cpm; Prolif. ([2]; Cou. 90 nM with DMSO in place of inhibitor): 7595
6 | COC1C(OC(=O)c2ccc(C)[nH]2)C(O)C(Oc2ccc3c(O)c(NC(=O)c4cc(=O)cc(C(=O)Nc5c(O)c6ccc(OC7OC(C)(C)C(OC)C(OC(=O)c8ccc(C)[nH]8)C7O)c(C)c6oc5=O)o4)c(=O)oc3c2C)OC1(C)C (stereo not drawn) [Cmpd 1] | – | – | – | – | – | – | 31865 | 34279 | 33933 | 35212 | 33301 | 31029 | – | – | – | – | – | – | Prolif. ([1]; Table 4, Example 3, 900 pM): 7156; Prolif. ([1]; Table 4, Example 3, 9 nM): 7653; Prolif. ([1]; Table 4, Example 3, 90 nM): 7487; Prolif. ([1]; Table 4, Example 3, 450 nM): 7209; Prolif. ([1]; Table 4, Example 3, 900 nM): 7092; Prolif. ([1]; Table 4, Example 3, 1.8 μM): 6397; Prolif. ([2]; Cou. 90 nM plus inhibitor 9 nM): 7713; Prolif. [2, 10]: 7683; Prolif. [2, 11]: 7597; Prolif. [2, 12]: 7271
7 | COC1C(OC(=O)c2ccc(C)[nH]2)C(O)C(Oc2ccc3c(O)c(NC(=O)COCCOCCOCC(=O)Nc4c(O)c5ccc(OC6OC(C)(C)C(OC)C(OC(=O)c7ccc(C)[nH]7)C6O)c(C)c5oc4=O)c(=O)oc3c2C)OC1(C)C (stereo not drawn) [Cmpd 5] | – | – | – | – | – | – | – | – | – | – | – | – | 15270 | 14277 | 14139 | 12732 | 12315 | 11751 | –
8 | COC1C(OC(=O)c2ccc(C)[nH]2)C(O)C(Oc2ccc3c(O)c(NC(=O)c4ccc(C(=O)Nc5c(O)c6ccc(OC7OC(C)(C)C(OC)C(OC(=O)c8ccc(C)[nH]8)C7O)c(C)c6oc5=O)cc4)c(=O)oc3c2C)OC1(C)C (stereo not drawn) [Cmpd 8] | 17973 | 19377 | 20715 | 22936 | 23858 | 22772 | – | – | – | – | – | – | – | – | – | – | – | – | –
9 | COC1C(OC(N)=O)C(O)C(Oc2ccc3c(O)c(NC(=O)COCCOCCOCC(=O)Nc4c(O)c5ccc(OC6OC(C)(C)C(OC)C(OC(N)=O)C6O)c(C)c5oc4=O)c(=O)oc3c2C)OC1(C)C (stereo not drawn) [CCmpd 2, reference compound] | – | – | – | – | – | – | – | – | – | – | – | – | 14761 | 14459 | 14516 | 13568 | 12281 | 11676 | –
10 | COC1C(OC(=O)c2ccc(C)[nH]2)C(O)C(Oc2ccc3c(O)c(NC(=O)c4ccc(Oc5ccc(C(=O)Nc6c(O)c7ccc(OC8OC(C)(C)C(OC)C(OC(=O)c9ccc(C)[nH]9)C8O)c(C)c7oc6=O)cc5)cc4)c(=O)oc3c2C)OC1(C)C (stereo not drawn) [Cmpd 2] | – | – | – | – | – | – | 36052 | 38236 | 42674 | 47023 | 46989 | 46345 | – | – | – | – | – | – | Prolif. (cpm) ([1]; Table 5, Example 4, 900 pM): 6014 cpm; Prolif. (cpm) ([1]; Table 5, Example 4, 9 nM): 6031 cpm; Prolif. (cpm) ([1]; Table 5, Example 4, 90 nM): 6623 cpm; Prolif. (cpm) ([1]; Table 5, Example 4, 450 nM): 7513 cpm; Prolif. (cpm) ([1]; Table 5, Example 4, 900 nM): 7798 cpm; Prolif. (cpm) ([1]; Table 5, Example 4, 1.8 μM): 7825 cpm; Prolif. ([2]; Cou. 90 nM plus inhibitor 9 nM): 7654; Prolif. [2, 10]: 7316; Prolif. [2, 11]: 8068; Prolif. [2, 12]: 8165
11 | COC1C(OC(=O)c2ccc(C)[nH]2)C(O)C(Oc2ccc3c(O)c(NC(=O)c4ccc(C(=O)Nc5c(O)c6ccc(OC7OC(C)(C)C(OC)C(OC(=O)c8ccc(C)[nH]8)C7O)c(C)c6oc5=O)s4)c(=O)oc3c2C)OC1(C)C (stereo not drawn) [Cmpd 9] | 16826 | 18126 | 19177 | 20889 | 22210 | 20367 | – | – | – | – | – | – | – | – | – | – | – | – | –
12 | COC1C(OC(=O)c2ccc(C)[nH]2)C(O)C(Oc2ccc3c(O)c(NC(=O)COCCOCC(=O)Nc4c(O)c5ccc(OC6OC(C)(C)C(OC)C(OC(=O)c7ccc(C)[nH]7)C6O)c(C)c5oc4=O)c(=O)oc3c2C)OC1(C)C (stereo not drawn) [Cmpd 6] | – | – | – | – | – | – | – | – | – | – | – | – | 14954 | 14710 | 13351 | 12190 | 12872 | 10832 | –
13 | COC1C(OC(N)=O)C(O)C(Oc2ccc3c(O)c(NC(=O)COCCOCC(=O)Nc4c(O)c5ccc(OC6OC(C)(C)C(OC)C(OC(N)=O)C6O)c(C)c5oc4=O)c(=O)oc3c2C)OC1(C)C (stereo not drawn) [CCmpd 1, reference compound] | – | – | – | – | – | – | – | – | – | – | – | – | 15741 | 14691 | 13628 | 12465 | 11935 | 11057 | –
14 | COC1C(OC(N)=O)C(O)C(Oc2ccc3c(O)c(NC(=O)c4cc(=O)cc(C(=O)Nc5c(O)c6ccc(OC7OC(C)(C)C(OC)C(OC(N)=O)C7O)c(C)c6oc5=O)o4)c(=O)oc3c2C)OC1(C)C (stereo not drawn) [CCmpd 3, reference compound] | – | – | – | – | – | – | 32299 | 33921 | 33671 | 33712 | 31968 | 28434 | – | – | – | – | – | – | –

Reference: patent publication US6916846B2, “Coumermycin analogs as chemical dimerizers of chimeric proteins” (Merck & Co. Inc., priority 2000, dated 2005)
